Measurements from US20080241862A1, “PROPIONYL AND BUTYRYL LYSINE MODIFICATIONS IN PROTEINS” (priority 2007, published 2008).

Test system: K^Buty of H3 and H4 in HeLa cells
Assay: K^Buty level in histones of HeLa cells treated with HDAC inhibitors (immunoblot)
Assay type: cell-based
Conditions: anti-K^Buty immunoblot
Protocol: FIGS. 17A-C. […] Four peptide libraries were spotted on nitrocellulose membrane with four dilutions and were used to assay the antibody's specificity. The 14-residue randomized peptide libraries have a fixed residue at 8th position, K^Ac in lane 1, K^Prop in lane 2, K^Buty in lane 3, and K in lane 4. Dot-blot analysis was used to test the specificity of the antibody. To perform the dot-blot analysis, 2 ul of peptide diluted in distilled water to different concentrations was spotted on a strip of nitrocellulose membrane and allowed to air dry. The membrane was then assayed in a manner similar to that used in the immunoblot analysis. […] Lane 3 and 4 are WB controls using anti-H3 and anti-H4 antibodies, respectively. For antibody competition assay, 200 ng of anti-K^Buty antibody was incubated with 1 ug of a peptide library with a fixed non-modified lysine (lane 1) or with a fixed butyryllysine (lane 2), respectively. After incubation for 3 hour at room temperature, the antibody was subjected to immunoblot against core histones derived from Hela cells. Histone H3 and H4 antibodies were used to indicate the positions of H3 or H4 (lane 3 and lane 4). […] The core histones were prepared from HeLa cells treated with nothing, or trichostatin A (TSA), or sodium butyrate (NaBu), as indicated. […]

SMILES | K^Buty level (20 mM for 6 hours) | K^Buty level (10 uM, 6 Hours)
CCCC(=O)[O-].[Na+] [sodium butyrate] | dramatically induced | 
CC(/C=C/C(=O)NO)=C\[C@@H](C)C(=O)c1ccc(N(C)C)cc1 [trichostatin A] |  | dramatically induced
